Laboratory results from ChEMBL document CHEMBL1129865, “Synthesis, evaluation, and crystallographic analysis of L-371,912: A potent and selective active-site thrombin inhibitor” (Bioorg Med Chem Lett, 1997).

Experiments:
[1] = Concentration required to double the activated partial thromboplastin time in human plasma was determined; assay type: functional
Rattus norvegicus [2] = assay: Efficacy by observing the number of occulation in rat when a dose of 6 ug/Kg/min iv. administration; 1/6; assay type: functional
Rattus norvegicus [3] = assay: Efficacy by observing the number of occulation in rat when a dose of 6 ug/Kg/min iv. administration; 3/6; assay type: functional
Serine protease 1 = target: T1, Serine protease 1 (Bos taurus, UniProt P00760); assay: In vitro inhibition against bovine trypsin was determined
T1 sequence (P00760 whole entry): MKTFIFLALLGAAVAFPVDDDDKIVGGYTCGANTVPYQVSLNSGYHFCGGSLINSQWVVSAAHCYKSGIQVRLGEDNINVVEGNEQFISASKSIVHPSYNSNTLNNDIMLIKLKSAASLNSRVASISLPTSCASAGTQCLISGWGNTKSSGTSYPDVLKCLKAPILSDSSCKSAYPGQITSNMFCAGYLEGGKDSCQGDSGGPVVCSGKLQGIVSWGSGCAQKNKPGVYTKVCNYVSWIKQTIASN

| Ki (Serine protease 1) | Compound | APPTT [1] | Occulations (Rattus norvegicus [2]) | Occulations (Rattus norvegicus [3]) |
| --- | --- | --- | --- | --- |
|  | CN[C@H](Cc1ccccc1)C(=O)N1CCC[C@H]1C(=O)NC[C@H]1CC[C@H](N)CC1 | 1.1 µM | 1 |  |
| 1150 nM | CNC(=O)C(=O)[C@@H](NC(=O)[C@@H]1CCCN1C(=O)[C@@H](Cc1ccccc1)NC)[C@H]1CC[C@H](N)CC1 | 2 µM |  | 3 |
